From article PMC4703832, “Haem-activated promiscuous targeting of artemisinin in Plasmodium falciparum” (Nature Communications, 2015)

Key:
[1] = molecular target: T1, LDH (L-lactate dehydrogenase) (Plasmodium falciparum, UniProt Q76NM3); experiment: LDH inhibition assay, absorbance at […] nm; type: biochemical; conditions: 0-80 uM artesunate, haemin 200 uM and L-ascorbic acid 200 uM, 4 h preincubation at 37 °C; covalent, haem-activated
T1 construct: gene PF3D7_1324900; gene amplified from 3D7 genomic DNA, pET28a, E. coli BL21(DE3)-star, Ni-NTA purified

PyrK (pyruvate kinase) = molecular target: T2, PyrK (pyruvate kinase) (Plasmodium falciparum, UniProt C6KTA4); experiment: pyruvate kinase inhibition assay, absorbance at […] nm; type: biochemical; conditions: 0-80 uM artesunate, haemin 200 uM and L-ascorbic acid 200 uM, 4 h preincubation at 37 °C; covalent, haem-activated
T2 construct: gene PF3D7_0626800
T2 sequence (C6KTA4 1-511): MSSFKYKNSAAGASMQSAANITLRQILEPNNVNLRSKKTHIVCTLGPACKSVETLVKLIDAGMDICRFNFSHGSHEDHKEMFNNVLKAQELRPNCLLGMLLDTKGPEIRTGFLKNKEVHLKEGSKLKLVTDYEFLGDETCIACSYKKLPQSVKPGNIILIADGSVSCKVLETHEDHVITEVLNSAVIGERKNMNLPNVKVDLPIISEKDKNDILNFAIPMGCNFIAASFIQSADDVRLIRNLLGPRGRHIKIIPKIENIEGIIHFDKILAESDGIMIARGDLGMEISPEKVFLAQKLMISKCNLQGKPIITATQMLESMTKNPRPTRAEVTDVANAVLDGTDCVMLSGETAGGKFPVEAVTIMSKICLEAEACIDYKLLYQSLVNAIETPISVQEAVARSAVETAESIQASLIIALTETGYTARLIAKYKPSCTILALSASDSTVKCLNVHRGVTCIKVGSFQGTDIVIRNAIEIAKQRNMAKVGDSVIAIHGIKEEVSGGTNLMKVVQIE

T1 sequence (Q76NM3 1-316): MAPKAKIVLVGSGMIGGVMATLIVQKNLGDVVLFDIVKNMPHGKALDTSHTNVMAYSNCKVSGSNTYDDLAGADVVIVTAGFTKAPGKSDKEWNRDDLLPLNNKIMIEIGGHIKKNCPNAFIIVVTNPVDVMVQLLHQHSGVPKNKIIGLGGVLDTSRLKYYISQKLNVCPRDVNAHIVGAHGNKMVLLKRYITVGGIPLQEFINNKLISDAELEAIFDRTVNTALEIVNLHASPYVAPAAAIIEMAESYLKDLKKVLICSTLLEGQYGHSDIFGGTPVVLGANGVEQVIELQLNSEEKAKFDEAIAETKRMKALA

## C[C@H]1[C@H](OC(=O)CCC(=O)O)O[C@@H]2O[C@@]3(C)CC[C@H]4[C@H](C)CC[C@@H]1[C@@]24OO3 [Arts, artesunate]
[1]
  dose-dependent inhibition: Functional assays showed that artesunate inhibits their enzymatic activities in a dose-dependent manner
PyrK (pyruvate kinase)
  dose-dependent inhibition: Functional assays showed that artesunate inhibits their enzymatic activities in a dose-dependent manner
